± gives the expanded uncertainty stated by the source.
Experiment: mean ionic activity coefficient (dimensionless); mn = molality of the nth substance listed, in mol/kg
Conditions: 101 kPa, Liquid

[Cl-].[K+] [potassium chloride] + O
mean ionic activity coefficient
Conditions	273.15 K	283.15 K	293.15 K	303.15 K	313.15 K	323.15 K	333.15 K	343.15 K
m1 = 0.1	0.772 ± 0.05	0.771 ± 0.05	0.77 ± 0.05	0.767 ± 0.05	0.764 ± 0.05	0.761 ± 0.05	0.757 ± 0.05	0.752 ± 0.05
m1 = 0.2	0.719 ± 0.05	0.719 ± 0.05	0.719 ± 0.05	0.716 ± 0.05	0.714 ± 0.05	0.71 ± 0.05	0.705 ± 0.05	0.699 ± 0.05
m1 = 0.5	0.643 ± 0.05	0.647 ± 0.05	0.651 ± 0.05	0.649 ± 0.05	0.647 ± 0.05	0.644 ± 0.05	0.638 ± 0.05	0.632 ± 0.05
m1 = 1	0.581 ± 0.05	0.592 ± 0.05	0.602 ± 0.05	0.602 ± 0.05	0.603 ± 0.05	0.601 ± 0.05	0.596 ± 0.05	0.588 ± 0.05

[Cl-].[Na+] [sodium chloride] + O
mean ionic activity coefficient
Conditions	273.15 K	283.15 K	293.15 K	303.15 K	313.15 K	323.15 K	333.15 K	343.15 K	353.15 K
m1 = 0.1	0.781 ± 0.05	0.78 ± 0.05	0.779 ± 0.05	0.777 ± 0.05	0.774 ± 0.05	0.77 ± 0.05	0.766 ± 0.05	0.761 ± 0.05	0.752 ± 0.05
m1 = 0.2	0.734 ± 0.05	0.735 ± 0.05	0.735 ± 0.05	0.732 ± 0.05	0.729 ± 0.05	0.725 ± 0.05	0.72 ± 0.05	0.713 ± 0.05	0.703 ± 0.05
m1 = 0.25	0.719 ± 0.05	0.72 ± 0.05	0.721 ± 0.05	0.718 ± 0.05	0.715 ± 0.05	0.711 ± 0.05	0.706 ± 0.05	0.699 ± 0.05	0.688 ± 0.05
m1 = 0.5	0.672 ± 0.05	0.677 ± 0.05	0.681 ± 0.05	0.68 ± 0.05	0.678 ± 0.05	0.674 ± 0.05	0.667 ± 0.05	0.659 ± 0.05	0.647 ± 0.05
m1 = 0.7	0.651 ± 0.05	0.658 ± 0.05	0.665 ± 0.05	0.666 ± 0.05	0.664 ± 0.05	0.66 ± 0.05	0.653 ± 0.05	0.644 ± 0.05	0.633 ± 0.05
m1 = 0.75	0.646 ± 0.05	0.655 ± 0.05	0.662 ± 0.05	0.663 ± 0.05	0.662 ± 0.05	0.658 ± 0.05	0.651 ± 0.05	0.641 ± 0.05	0.631 ± 0.05
m1 = 1	0.629 ± 0.05	0.641 ± 0.05	0.653 ± 0.05	0.655 ± 0.05	0.655 ± 0.05	0.652 ± 0.05	0.644 ± 0.05	0.633 ± 0.05	0.624 ± 0.05

Reference: the NIST ThermoML archive (doi:10.1021/acs.jced.5b00544)
